In assay [1] the target is T1, Arabidopsis thaliana AtSWEET7 transporter, wild type (Table 2: SEQ ID NO: 3; FIG. 12: SEQ ID NO:2) (Arabidopsis thaliana, UniProt Q8LBF7).
T1 construct: expressed in transfected cells; host or cells: S. cerevisiae SR8D8 (SR8 with HXT1-7 and GAL2 deleted), plasmid p42K-GPD1p-CYC1t
T1 sequence (Q8LBF7 1-258): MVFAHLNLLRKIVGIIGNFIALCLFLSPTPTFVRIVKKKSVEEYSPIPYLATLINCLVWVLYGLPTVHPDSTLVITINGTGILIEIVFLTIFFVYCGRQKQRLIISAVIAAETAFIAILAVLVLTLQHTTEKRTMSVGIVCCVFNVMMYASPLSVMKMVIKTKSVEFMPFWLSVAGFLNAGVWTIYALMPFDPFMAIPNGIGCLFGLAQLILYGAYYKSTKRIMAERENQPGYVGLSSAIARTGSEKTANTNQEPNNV
The assay is described as follows: Inhibition of xylose uptake by glucose, SR8D8 expressing AtSWEET7. In kind it is cell-based. The following applies: 25 mM and 100 mM glucose; in words. On the procedure: (§1) Symbols: glucose (square), xylose (triangle up), DCW (circle), ethanol (triangle down), glycerol (diamond). […] Global curve fitting for Michaelis-Menten kinetics with competitive inhibition was applied to data of three independent measurements at each concentration.
(§2) SR8D8 containing the respective plasmid was grown on selective YPE medium to an OD600 of 1-1.5, harvested by centrifugation, and washed twice in ice-cold uptake buffer (100 mM potassium phosphate, pH 6.5). C14 labeled sugar uptake assay was done according to Boles and Oreb. Radioactivity was analyzed in a Beckman-Coulter LS6500 multi-purpose liquid scintillation counter (Beckman-Coulter, CA, USA).
(§3) Sugar solutions contained 0.135-0.608 μCi of D-[U-^14C]-glucose (290-300 mCi/mmol) or D-[1-^14C]-xylose (55 mCi/mmol) (PerkinElmer, MA, USA). Calculation of Km (Michaelis constant), Vmax (maximal initial uptake velocity), and K (inhibitor constant for competitive inhibition) was done by nonlinear regression analysis and global curve fitting in Prism 7 (GraphPad Software) with values of three independent measurements.

Assay [2] has as its target T2, Lipomyces starkeyi LST1_205437 transporter, wild type, SEQ ID NO: 4 (Lipomyces starkeyi, UniProt A0A1E3QE37).
T2 construct: whole-cell 14C sugar uptake
T2 sequence (A0A1E3QE37 1-603): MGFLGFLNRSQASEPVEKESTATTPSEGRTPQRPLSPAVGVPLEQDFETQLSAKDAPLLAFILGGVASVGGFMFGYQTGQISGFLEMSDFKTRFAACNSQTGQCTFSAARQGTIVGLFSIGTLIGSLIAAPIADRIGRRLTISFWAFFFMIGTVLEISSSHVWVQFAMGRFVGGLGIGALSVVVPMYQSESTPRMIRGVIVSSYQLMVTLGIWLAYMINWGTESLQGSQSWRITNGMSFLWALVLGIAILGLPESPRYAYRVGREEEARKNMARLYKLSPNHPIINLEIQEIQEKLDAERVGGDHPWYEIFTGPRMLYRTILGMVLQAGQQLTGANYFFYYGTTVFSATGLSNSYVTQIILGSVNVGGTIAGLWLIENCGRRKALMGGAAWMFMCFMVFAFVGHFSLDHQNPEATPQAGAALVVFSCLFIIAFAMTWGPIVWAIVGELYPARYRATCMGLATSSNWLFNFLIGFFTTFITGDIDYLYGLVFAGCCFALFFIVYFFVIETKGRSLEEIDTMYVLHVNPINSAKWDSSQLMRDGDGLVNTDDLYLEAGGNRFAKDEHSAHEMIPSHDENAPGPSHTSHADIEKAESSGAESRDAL
The assay is described as follows: Inhibition of xylose uptake by glucose, SR8D8 expressing LST1_205437. In kind it is cell-based. The following applies: 25 mM or 100 mM glucose; in words. The method, then:
as §1, §2, §3

Consider 1 compound from US12686846B2, “Plant sweet and yeast MSF transporter capable of transporting different sugars simultaneously” (THE BOARD OF TRUSTEES OF THE UNIVERSITY OF ILLINOIS, priority 2020, dated 2026).

“Also recorded” adds a separate entry of the source.

Consider `OC[C@H]1OC(O)[C@H](O)[C@@H](O)[C@@H]1O` (some centres unmarked) [Glucose], for which the “inhibition of xylose transport by glucose” value in assay [1] is recorded as “no inhibition of xylose transport by glucose; also recorded: do not have any xylose transport inhibition”; in assay [2], “less inhibited by glucose than those by ScGal2; also recorded: glucose concentration dependent inhibition of xylose transport”.
